This note sets out measurements from PMC3753754, “Andrographis paniculata Extract and Andrographolide Modulate the Hepatic Drug Metabolism System and Plasma Tolbutamide Concentrations in Rats” (Evidence-based Complementary and Alternative Medicine : eCAM, 2013).

Marks after values point to notes of the source that are not given here.

A short description of data set [1]: Rat growth: body weight and liver weight after 5 days of daily oral dosing. As to conditions: rats, oral 2 g/kg APE or 50 mg/kg AND daily for 5 days. The class given is in vivo, Sprague-Dawley rats. The method, then: Seven-week-old male Sprague-Dawley rats cannulated in the jugular vein were purchased from the Bio LASCO Experimental Animal Center (Taipei, Taiwan). The animals were fed a standard rat diet and were randomly assigned into control, APE-treated, and andrographolide-treated groups (n = 5). Rats were housed in plastic cages in a room kept at 23 ± 1°C and 60 ± 5% relative humidity with a 12-hour light and dark cycle. Food and drinking water were available ad libitum. Control rats were orally administered methyl cellulose. […] After the 5th daily dose, rats were deprived of food overnight. On day 6, a 20 mg/kg oral dose of tolbutamide, as a solution in Cremophor EL (polyoxyl 35 hydrogenated castor oil, Sigma)/ethanol/water (30/10/60, v/v/v), was administered to each rat. After the administration of tolbutamide, serial blood samples were collected up to 12 h after dosing from each rat. The animals were then killed by exsanguination, and the livers were collected.
All animals were killed by exsanguination via the abdominal aorta while under carbon dioxide (CO2/O2, 70%/30%) anesthesia. Heparin was used as the anticoagulant. Plasma was separated from the blood by centrifugation (1750 ×g) at 4°C for 20 min. The liver from each animal was excised, weighed, and stored at −80°C. This research has received ethical approval from the institutional animal ethics committee of China Medical University, Taichung, Taiwan.

The subject of a further data set is CYP2D. The data set is described as follows: Dextromethorphan O-deethylation in liver microsomes of treated rats. Format: in vivo. To be noted: rat liver microsomes; oral 2 g/kg APE or 50 mg/kg AND daily for 5 days. The method, then: (§1) Liver was homogenized (1 : 4, w/v) in an ice-cold potassium phosphate buffer (pH 7.4) containing 7.4 mM K2HPO4, 2.6 mM KH2PO4, 1.15% KCl, and 1 mM phenylmethylsulfonyl fluoride (PMSF). Tissue homogenates were centrifuged at 10,000 ×g for 30 min at 4°C. The resulting supernatant was then centrifuged at 105,000 ×g for 1 h at 4°C. The microsomes thus obtained were washed several times to get rid of possible tolbutamide contamination and this can avoid tolbutamide interference of CYP activity, and the microsomes were then suspended in potassium phosphate buffer (pH 7.7) containing 7.5 mM K2HPO4, 14.5 mM KH2PO4, and 1 mM EDTA. […] Metabolites of each CYP enzyme reaction were determined by LC/MS as reported previously. The contents of total CYP and cytochrome b5 were quantified by the method of Omura and Sato [29]. Enzyme activity is expressed as picomoles of metabolite formed per minute per milligram of protein. The NADPH-CYP reductase activity was measured as described by Phillips and Langdon with the use of cytochrome c as the substrate. The microsomal protein concentration was determined by using a Coomassie Plus protein assay kit (Pierce, Rockford, IL, USA).
Background: Liver microsomes are a subcellular fraction often used to study metabolism.

In a further data set the test system is Cytochrome b5. Briefly: Cytochrome b5 content in liver microsomes of treated rats. As to conditions: rat liver microsomes; oral 2 g/kg APE or 50 mg/kg AND daily for 5 days. Format: in vivo. The protocol:
as §1

The next data set relates to P-glycoprotein. Briefly: Immunoblot and RT-PCR of hepatic P-glycoprotein in treated rats. Format: in vivo. To be noted: rat liver; APE or andrographolide for 5 days. The method, then: For P-glycoprotein expression, liver tissue was homogenized with phosphate-buffered saline containing 0.2% Triton X-100, 5 mM EDTA, and 1 mM PMSF. The homogenates were then centrifuged at 10,000 ×g for 30 min at 4°C. Proteins in the resulting supernatants were electrophoretically separated and were immunoblotted with P-glycoprotein antibody. The immunoreactive bands were detected by using an enhanced chemiluminescence plus Western blotting detection reagent (Amersham Biosciences, Boston, MA, USA).
Total RNA in liver samples was extracted by using the Trizol reagent (1 : 20, w/v). […] The sequences for the PCR primers were as follows: for CYP1A1 (forward: 5′-[…]-3′; reverse: 5′-[…]-3′), CYP1A2 (forward: 5′-[…]-3′; reverse: 5′-[…]-3′), CYP2C6 (forward: 5′-[…]-3′; reverse: 5′-[…]-3′), CYP2C11 (forward: 5′-[…]-3′; reverse: 5′-[…]-3′), CYP2D1 (forward: 5′-[…]-3′; reverse: 5′-[…]-3′), CYP2E1 (forward: 5′-[…]-3′; reverse: 5′-[…]-3′), CYP3A1 (forward: 5′-[…]-3′; reverse: 5′-[…]-3′), CYP3A2 (forward: 5′-[…]-3′; reverse: 5′-[…]-3′), and P-glycoprotein (forward: 5′-[…]-3′; reverse: 5′-[…]-3′). […] The PCR amplicons were then electrophoresed in 1% agarose gels containing 40 mM Tris/20 mM glacial acetic acid/2 mM EDTA buffer, and the relative densities of the PCR products were quantitated by use of Image Gauge software (Fujifilm, Tokyo, Japan). […]
(A western blot detects proteins with antibodies after separation by electrophoresis.)

The subject of the next data set is CYP1A1. Briefly: Ethoxyresorufin O-deethylation in liver microsomes of treated rats. As to conditions: rat liver microsomes; oral 2 g/kg APE or 50 mg/kg AND daily for 5 days. Format: in vivo. The protocol: as §1
Another data set has as its system CYP2C. The data set is described as follows: Diclofenac 4-hydroxylation in liver microsomes of treated rats. The class given is in vivo. As to conditions: rat liver microsomes; oral 2 g/kg APE or 50 mg/kg AND daily for 5 days. The method, then:
as §1

`C=C1CC[C@@H]2[C@](C)(CO)[C@H](O)CC[C@@]2(C)[C@@H]1C/C=C1/C(=O)OC[C@H]1O` [andrographolide, Andrographolide] returned a Relative liver weight in data set [1] ((liver weight/body weight) × 100) of 3.8 ± 0.3%. In data set [1] (mean ± SD, n = 5), the “Body weight, Final” value is on record as 332 ± 13^a g and the Liver weight stood at 12.8 ± 1.5 g. For the same compound, the “Dextromethorphan O-deethylase (2D)” value in the data set with CYP2D came to 79.1 ± 30.4 pmol/min/mg protein. Moreover, in the data set on Cytochrome b5, the “Cytochrome b5 content” value was 327 ± 79 pmol/mg protein. Further, in the data set on P-glycoprotein, the “Protein and mRNA levels of membrane transporter P-glycoprotein” value is listed as “only a minor effect”. Moreover, the “Ethoxyresorufin O-deethylase (1A1)” value in the data set on CYP1A1 was 66.6 ± 13.5^b pmol/min/mg protein. Besides, the “Diclofenac 4-hydroxylase (2C)” value with CYP2C was 43.8 ± 10.5^b pmol/min/mg protein.
